In patent US9328078B2, “Benzofurazan anti-amyloid compounds and methods” (Treventis Corporation, priority 2012, dated 2016) one finds inhibition and IC50 data, which are given here for 22 compounds.

For assay [1], the target named is T1, Biotin-Aβ(1-42) (Homo sapiens, UniProt P05067).
T1 construct: Biotin-Aβ(1-42) (AnaSpec) at 0.2 mg/ml in hexafluoroisopropanol (HFIP); purchased AnaSpec
As to the kind of experiment: Biotin-Aβ(1-42) oligomeric assay. The format is biochemical. The note with it: inhibition of oligomer formation at 25 uM, 30 minutes; higher = more inhibition. On the procedure: The following assay was adapted from H. LeVine III. Biotin-avidin interaction-based screening assay for Alzheimer's β-peptide oligomer inhibitors, Anal. Biochem. 356 (2006) 265-272 and A. Frey, B. Meckelein, D. Externest, M. A. Schmidt A stable and highly sensitive 3,3′,5,5′-tetramethylbenzidine-based substrate reagent for enzyme-linked immunosorbent assays, J. Immunol. Methods 233 (2000) 47-56.
Biotin-Aβ(1-42) (AnaSpec) at 0.2 mg/ml in hexafluoroisopropanol (HFIP) was further diluted in 20 volumes of HFIP, which was then evaporated under a stream of argon. 20 volumes of trifluoroacetic acid was added and let rest for 10 minutes, then evaporated under a stream of argon. Another 20 volumes of HFIP was added and evaporated under a stream of argon. Biotin-Aβ(1-42) was brought to a final concentration of 2.3 mg/ml in DMSO. Oligomer formation was initiated in 96 well round bottom polypropylene plates by diluting the prepared biotin-Aβ(1-42) 50× in 20 mM sodium phosphate pH 7.5, 150 mM NaCl in the presence of vehicle or compound. Oligomer formation was halted after 30 minutes by the addition of 50 μl/well of 0.3% Tween-20.
96 well Costar high-binding microplates were coated overnight at +4° C. with 50 μl/well of 1 ug/ml NeutrAvidin (ThermoScientific) in 10 mM sodium phosphate, pH 7.5. Plates were blocked for 2 hours at room temperature with 200 μl/well 20 mM sodium phosphate pH 7.5, 150 mM NaCl, 0.1% Tween-20. The oligomer preparation was transferred at 50 μl/well to the blocked plate and incubated for 2 hours at room temperature with shaking at 150 rpm. The plate was then washed three times with 200 μl/well 20 mM tris-HCl pH 7.5, 34 mM NaCl, 0.1% Tween-20 (TBS-T). Streptavidin-HRP (Rockland Immunochemicals) [1:20,000] in 20 mM sodium phosphate pH 7.5, 150 mM NaCl, 0.1% Tween-20 was added at 50 μl/well and incubated in the dark at room temperature for 1 hour with shaking at 150 rpm. The plate was washed three times with 200 μl/well of TBS-T. Tetramethylbenzidine/H2O2 substrate was prepared by mixing 250 μl of 41 mM 3,3′,5,5′-tetramethylbenzidine, 8.2 mM tetrabutylammonium borohydride in dimethylacetamide with 10 ml of 205 mM K3 citrate pH 4.0, 3.075 mM H2O2 and incubating for 15 minutes at room temperature. Prepared substrate solution was added at 100 μl/well and the reaction was allowed to proceed for 15 minutes, after which it was terminated by the addition of 100 μl/well of 1% H2SO4. The OD450nm was determined using a Tecan Infinite F200 plate reader.

Assay [2] concerns the target Aβ40 (Homo sapiens, UniProt P05067). As to the kind of experiment: kinetic ThT assay for Aβ aggregation. It is filed as biochemical. The following applies: for inhibition at 5 µM: 80 h, compound 5 μm, read-out: % inhib Aβ 40 (5 μm); for inhibition at 5 µM / inhibition at 10 µM / inhibition at 20 µM: DMSO control at 80 hr = 0% inhibition, parenthesis = compound 1027; for inhibition at 10 µM: compound 10 μM, read-out: % inhib Aβ 40 10 μM; for inhibition at 20 µM: compound 20 μM, read-out: % inhib. A β 40 (20 μM). The procedure:
Aβ40 (1.0 mg) was pre-treated in a 1.5 mL microfuge tube with HFIP (1 mL) and sonicated for 20 min to disassemble any pre-formed Aβ aggregates. The HFIP was removed with a stream of argon and the Aβ dissolved in Tris base (5.8 mL, 20 mM, pH˜10). The pH was adjusted to 7.4 with concentrated HCl (˜10 μL) and the solution filtered using a syringe filter (0.2 μm) before being used.
The kinetic ThT assay for AP aggregation is similar to that of Chalifour et al (Chalifour et al, 2003, J. Biol. Chem. 278:34874-81). Briefly, pre-treated Aβ40 or Aβ42 (40 μM in 20 mM Tris, pH 7.4) was diluted with an equal volume of 8 μM Thioflavin T (ThT) in Tris (20 mM, pH 7.4, 300 mM NaCl). Aliquots of Aβ/ThT (200 μL) were added to wells of a black polystyrene 96-well plate, followed by 2 μL of a compound in DMSO (variable concentration), or DMSO alone (controls). Incubations were performed in triplicate and were taken to contain 20 μM Aβ, various concentration of compound in 20 mM Tris, pH 7.4, 150 mM NaCl, 1% DMSO. Plates were covered with clear polystyrene lids and incubated at 37° C. in a Tecan Genios microplate reader.
Fluorescence readings (λex=450 nm, λem=480 nm) were taken every 15 min., after first shaking at high intensity for 15 s and allowing to settle for 10 s before each reading. Active compounds attenuated the increase in fluorescence over time that occurred in controls. In FIGS. 1-7, the time this procedure was performed extended to 80 hours (rightmost part of X-axis), at which point fluorescence increase generally reached an asymptote. Applying a definition of DMSO control at 80 hr as 100% aggregation (0% inhibition) and DMSO control at 0 hr as 0% aggregation (100% inhibition), a % inhibition score where higher is better can be calculated for a given concentration of compound. By repeating this procedure over several concentrations, a […] (IC50) can be measured, as is given in the table below for some compounds.
Data is summarized in the table below; numbers given in parenthesis are the values in that particular experiment for compound ID 1027, given as the first entry in this table for comparison.

Aβ40, sequence (P05067 672-711 limits assumed, species assumed): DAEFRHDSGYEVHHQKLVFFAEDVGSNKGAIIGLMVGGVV
T1 sequence (P05067 672-713 limits assumed): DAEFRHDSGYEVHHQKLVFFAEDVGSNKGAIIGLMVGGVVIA

As to `OC(c1cccc(-c2cc(N3CCC[C@H]3CN3CCCC3)c3nonc3c2)c1)C(F)(F)F` (some centres unmarked) [TRV-1452], the inhibition at 25 µM in assay [1] was found to be 76%. Also, in assay [2], the inhibition at 5 µM came out at 50% and the inhibition at 10 µM came to 63%.
Turning to `CN(C)CCCN(C)c1cc(-c2cccc(C(O)C(F)(F)F)c2)cc2nonc12` (centres unmarked) [TRV-1465], the inhibition at 25 µM in assay [1] is 69%.
As for `CN(Cc1nccs1)c1cc(-c2cccc(C(O)C(F)(F)F)c2)cc2nonc12` (centres unmarked) [TRV-1459], the inhibition at 25 µM in assay [1] is -32%. In addition, in assay [2], the inhibition at 5 µM was 47% and the inhibition at 10 µM came to 62%.
On the same counts, the results for `OC(c1cccc(-c2cc(N3CC(N4CCOCC4)C3)c3nonc3c2)c1)C(F)(F)F` (centres unmarked) [TRV-1462] are 23%, 53% and 48%.
Turning to `CC(C)(O)C1CN(c2cc(-c3cccc(C(O)C(F)(F)F)c3)cc3nonc23)C1` (centres unmarked) [TRV-1435], the inhibition at 25 µM in assay [1] is 29%. Also, in assay [2], the inhibition at 5 µM was 52% and the inhibition at 10 µM was 66%.
Take `CC(O)C1CN(c2cc(-c3cccc(C(O)C(F)(F)F)c3)cc3nonc23)C1` (centres unmarked) [TRV-1451]: in assay [1], the inhibition at 25 µM came out at 4%. Moreover, in assay [2], the inhibition at 5 µM was found to be 54% and the inhibition at 10 µM stood at 73%.
Consider `CN(Cc1ccc(F)cc1)c1cc(-c2cccc(C(=O)N3CCCC3)c2)cc2nonc12` [TRV-1460], for which the inhibition at 25 µM in assay [1] was found to be 10%. In assay [2], the inhibition at 5 µM stood at 36% and the inhibition at 10 µM came to 44%.
The corresponding values for `OC(c1cccc(-c2cc(N3CC(CN4CCCC4)C3)c3nonc3c2)c1)C(F)(F)F` (centres unmarked) [TRV-1457] are 82%, 51% and 65%.
On the same counts, the results for `OC[C@@H]1CCCN1c1cc(-c2cccc(C(O)C(F)(F)F)c2)cc2nonc12` (some centres unmarked) [TRV-1450] are 32%, 57% and 79%.
Regarding `OC(c1cccc(-c2cc(N3CCC(N4CCCC4)CC3)c3nonc3c2)c1)C(F)(F)F` (centres unmarked) [TRV-1387], the inhibition at 25 µM in assay [1] was 75%. For the same compound, in assay [2], the inhibition at 5 µM was 40%, the inhibition at 10 µM was 52% and the inhibition at 20 µM was found to be 78%. In addition, in assay [2] (ThT fluorescence, 20 μM Aβ, 37° C., up to 80 hr, parenthesis = compound 1027 in same experiment, read-out: IC50 A β 1-40), the IC50 was found to be 5.76 µM.
With `CC(C)(O)[C@@H]1CCCN1c1cc(-c2cccc(C(O)C(F)(F)F)c2)cc2nonc12` (some centres unmarked) [TRV-1449], the inhibition at 25 µM in assay [1] was -3%. In assay [2], the inhibition at 5 µM worked out at 55% and the inhibition at 10 µM worked out at 72%.
For the compound `OC1CCN(c2cc(-c3cccc(C(O)C(F)(F)F)c3)cc3nonc23)C1` (centres unmarked) [TRV-1448], the inhibition at 25 µM in assay [1] was -23%. In addition, in assay [2], the inhibition at 5 µM was determined as 45% and the inhibition at 10 µM came out at 55%.
Consider `COC(C)C1CN(c2cc(-c3cccc(C(O)C(F)(F)F)c3)cc3nonc23)C1` (centres unmarked) [TRV-1461], for which the inhibition at 25 µM in assay [1] was -28%. Also, in assay [2], the inhibition at 5 µM was determined as 58.9% and the inhibition at 10 µM worked out at 71.7%.
On the same counts, the results for `OC(c1cccc(-c2cc(N3CC(N4CCCC4)C3)c3nonc3c2)c1)C(F)(F)F` (centres unmarked) [TRV-1456] are 3%, 36% and 64%.
The corresponding values for `OC(c1cccc(-c2cc(N3CC(CN4CCOCC4)C3)c3nonc3c2)c1)C(F)(F)F` (centres unmarked) [TRV-1455] are 29%, 41% and 60%.
Take `COC1CN(c2cc(-c3cccc(C(O)C(F)(F)F)c3)cc3nonc23)C1` (centres unmarked) [TRV-1403]: in assay [2], the inhibition at 5 µM came out at 51% and the inhibition at 20 µM is 81%.
With `CC1(O)CN(c2cc(-c3cccc(C(O)C(F)(F)F)c3)cc3nonc23)C1` (centres unmarked) [TRV-1436], in assay [2], the inhibition at 5 µM came out at 48% and the inhibition at 10 µM is 67%.
In the case of `OCC1CN(c2cc(-c3cccc(C(O)C(F)(F)F)c3)cc3nonc23)C1` (centres unmarked) [TRV-1428], in assay [2], the inhibition at 10 µM is 78%.
With `OC(c1cccc(-c2cc(NCc3ccccc3)c3nonc3c2)c1)C(F)(F)F` (centres unmarked) [TRV-1380], the inhibition at 5 µM in assay [2] worked out at 57.1%.
For the compound `CN(C)C1CCN(c2cc(-c3cccc(C(O)C(F)(F)F)c3)cc3nonc23)CC1` (centres unmarked) [TRV-1466], the inhibition at 25 µM in assay [1] came to 72%. In addition, in assay [2], the inhibition at 5 µM was 36.9% and the inhibition at 10 µM is 49%.
`OC(c1cccc(-c2cc(N3CCCC3)c3nonc3c2)c1)C(F)(F)F` (centres unmarked) [TRV-1361]: the inhibition at 10 µM in assay [2] came to 88.9%.
On to `CC(O)c1cccc(-c2cc(N3CCC[C@H]3CO)c3nonc3c2)c1` (some centres unmarked) [TRV-1359], for which, in assay [2], the inhibition at 10 µM came out at 75.2%.
